Reference: article PMC5218480 (PLoS ONE, 2017)

System: MV-4-11 cells
Experiment: Gene expression microarray analysis (Affymetrix PrimeView) and GSEA
Assay type: cell-based, human
Set-up: RFU PODN (11730768_x_at) / Fold change /veh PODN (11730768_x_at) / RFU LINC00158 (11744669_a_at) / Fold change /veh LINC00158 (11744669_a_at) / RFU DUSP10 (11751237_a_at) / Fold change /veh DUSP10 (11751237_a_at) / RFU ID3 (11757404_x_at) / Fold change /veh ID3 (11757404_x_at) / RFU PLEKHG5 (11737974_s_at) / Fold change /veh PLEKHG5 (11737974_s_at) / RFU LRRC4B (11730491_at) / Fold change /veh LRRC4B (11730491_at) / RFU GIMAP4 (11747438_a_at) / Fold change /veh GIMAP4 (11747438_a_at) / RFU KRT8 (11758183_x_at) / Fold change /veh KRT8 (11758183_x_at) / RFU CNN1 (11734310_a_at) / Fold change /veh CNN1 (11734310_a_at) / RFU VPS37D (11726825_at) / Fold change /veh VPS37D (11726825_at) / RFU C10orf10 (11716522_x_at) / Fold change /veh C10orf10 (11716522_x_at) / RFU KIR2DL2 /// KIR2DL4 /// KIR2DL5A /// KIR2DL5B /// KIR2DS1 /// KIR2DS2 /// KIR2DS3 /// KIR2DS4 /// KIR3DL3 /// KIR3DL3 /// KIR3DS1 (11738374_at) / Fold change /veh KIR2DL2 /// KIR2DL4 /// KIR2DL5A /// KIR2DL5B /// KIR2DS1 /// KIR2DS2 /// KIR2DS3 /// KIR2DS4 /// KIR3DL3 /// KIR3DL3 /// KIR3DS1 (11738374_at) / RFU C1QL1 (11718748_at) / Fold change /veh C1QL1 (11718748_at) / RFU TMPRSS4 (11747572_a_at) / Fold change /veh TMPRSS4 (11747572_a_at) / RFU HAMP (11756126_x_at) / Fold change /veh HAMP (11756126_x_at) / RFU RNFT2 (11725882_a_at) / Fold change /veh RNFT2 (11725882_a_at) / RFU NR4A2 (11747474_a_at) / Fold change /veh NR4A2 (11747474_a_at) / RFU ABCC12 (11746883_a_at) / Fold change /veh ABCC12 (11746883_a_at) / RFU TMEM136 (11760407_x_at) / Fold change /veh TMEM136 (11760407_x_at) / RFU CLDN22 /// WWC2 (11732394_at) / Fold change /veh CLDN22 /// WWC2 (11732394_at) / RFU HLA-DPB1 (11760878_x_at) / Fold change /veh HLA-DPB1 (11760878_x_at) / RFU SPINT1 (11716480_a_at) / Fold change /veh SPINT1 (11716480_a_at) / RFU GAP43 (11754022_s_at) / Fold change /veh GAP43 (11754022_s_at) / RFU A4GNT (11735810_at) / Fold change /veh A4GNT (11735810_at) / RFU PRB3 (11715151_x_at) / Fold change /veh PRB3 (11715151_x_at) / RFU TUBB4B (11761932_at) / Fold change /veh TUBB4B (11761932_at) / RFU CAPN14 (11732068_a_at) / Fold change /veh CAPN14 (11732068_a_at) / RFU TMCC2 (11721928_a_at) / Fold change /veh TMCC2 (11721928_a_at) / RFU IRGQ (11745062_a_at) / Fold change /veh IRGQ (11745062_a_at) / RFU FAM174B (11720279_a_at) / Fold change /veh FAM174B (11720279_a_at) / RFU TMPRSS4 (11748680_a_at) / Fold change /veh TMPRSS4 (11748680_a_at) / RFU FAM212B (11763350_a_at) / Fold change /veh FAM212B (11763350_a_at) / RFU PLEKHG5 (11743358_a_at) / Fold change /veh PLEKHG5 (11743358_a_at) / RFU ZSCAN30 (11745921_a_at) / Fold change /veh ZSCAN30 (11745921_a_at) / RFU CMKLR1 (11741424_a_at) / Fold change /veh CMKLR1 (11741424_a_at) / RFU LOC101060620 /// MAPK8IP1 (11723275_at) / Fold change /veh LOC101060620 /// MAPK8IP1 (11723275_at) / RFU SPTSSB (11747773_x_at) / Fold change /veh SPTSSB (11747773_x_at) / RFU PRSS12 (11739890_at) / Fold change /veh PRSS12 (11739890_at) / RFU BIN1 (11741810_x_at) / Fold change /veh BIN1 (11741810_x_at) / RFU WNT11 (11732464_a_at) / Fold change /veh WNT11 (11732464_a_at) / RFU C10orf10 (11716521_a_at) / Fold change /veh C10orf10 (11716521_a_at) / RFU C5orf56 (11738089_at) / Fold change /veh C5orf56 (11738089_at) / RFU CYB561 (11721691_x_at) / Fold change /veh CYB561 (11721691_x_at) / RFU ANKRD19P (11752326_a_at) / Fold change /veh ANKRD19P (11752326_a_at) / RFU OR2T12 /// OR2T33 /// OR2T8 (11738714_s_at) / Fold change /veh OR2T12 /// OR2T33 /// OR2T8 (11738714_s_at) / RFU VCAN (11748164_a_at) / Fold change /veh VCAN (11748164_a_at) / RFU JSRP1 (11732532_at) / Fold change /veh JSRP1 (11732532_at) / RFU KRTAP10-11 (11738290_x_at) / Fold change /veh KRTAP10-11 (11738290_x_at) / RFU MYO3A (11730013_a_at) / Fold change /veh MYO3A (11730013_a_at) / RFU EBF3 (11725865_a_at) / Fold change /veh EBF3 (11725865_a_at) / RFU CAMK2N1 (11719241_x_at) / Fold change /veh CAMK2N1 (11719241_x_at) / RFU C5orf56 (11738088_a_at) / Fold change /veh C5orf56 (11738088_a_at) / RFU OLFML3 (11715873_a_at) / Fold change /veh OLFML3 (11715873_a_at) / RFU LOC100653217 /// NTM (11731650_a_at) / Fold change /veh LOC100653217 /// NTM (11731650_a_at) / RFU MAPK11 (11762145_a_at) / Fold change /veh MAPK11 (11762145_a_at) / RFU FIZ1 (11724087_x_at) / Fold change /veh FIZ1 (11724087_x_at) / RFU OASL (11726364_x_at) / Fold change /veh OASL (11726364_x_at) / RFU SOX15 (11748057_x_at) / Fold change /veh SOX15 (11748057_x_at) / RFU CD79A (11719716_a_at) / Fold change /veh CD79A (11719716_a_at) / RFU HIST1H1D (11736915_at) / Fold change /veh HIST1H1D (11736915_at) / RFU CASKIN2 (11723855_a_at) / Fold change /veh CASKIN2 (11723855_a_at) / RFU LOC730098 (11760151_x_at) / Fold change /veh LOC730098 (11760151_x_at) / RFU OR4N2 (11742367_at) / Fold change /veh OR4N2 (11742367_at) / RFU PRRT2 (11749266_a_at) / Fold change /veh PRRT2 (11749266_a_at) / RFU SNX32 (11753110_a_at) / Fold change /veh SNX32 (11753110_a_at) / RFU CDHR5 (11726645_a_at) / Fold change /veh CDHR5 (11726645_a_at) / RFU RCAN1 (11760418_a_at) / Fold change /veh RCAN1 (11760418_a_at) / RFU FAM167A (11723789_a_at) / Fold change /veh FAM167A (11723789_a_at) / RFU FAM26E (11764081_at) / Fold change /veh FAM26E (11764081_at) / RFU ISYNA1 (11749810_s_at) / Fold change /veh ISYNA1 (11749810_s_at) / RFU ACY1 (11761880_at) / Fold change /veh ACY1 (11761880_at) / RFU 11764098_at / Fold change /veh 11764098_at / RFU SAMD14 (11745864_x_at) / Fold change /veh SAMD14 (11745864_x_at) / RFU NPB (11741838_a_at) / Fold change /veh NPB (11741838_a_at) / RFU TMPRSS6 (11731388_a_at) / Fold change /veh TMPRSS6 (11731388_a_at) / RFU KRTAP10-2 (11738614_at) / Fold change /veh KRTAP10-2 (11738614_at) / RFU ARHGAP8 /// PRR5-ARHGAP8 (11727945_x_at) / Fold change /veh ARHGAP8 /// PRR5-ARHGAP8 (11727945_x_at) / RFU KRTAP5-7 /// NADSYN1 (11734609_at) / Fold change /veh KRTAP5-7 /// NADSYN1 (11734609_at) / RFU RASL12 (11751679_a_at) / Fold change /veh RASL12 (11751679_a_at) / RFU CDKN2B (11736163_a_at) / Fold change /veh CDKN2B (11736163_a_at) / RFU PRF1 (11729649_at) / Fold change /veh PRF1 (11729649_at) / RFU, ZNF638 /// ZNF638-IT1 / Fold change vs veh, ZNF638 /// ZNF638-IT1 / RFU, PANK3 / Fold change vs veh, PANK3 / RFU, SH3YL1 / Fold change vs veh, SH3YL1 / RFU, ZEB2 / Fold change vs veh, ZEB2 / RFU, NRIP1 / Fold change vs veh, NRIP1 / RFU, PTTG1IP / Fold change vs veh, PTTG1IP / RFU, CAPN2 / Fold change vs veh, CAPN2 / RFU, MED14 / Fold change vs veh, MED14 / RFU, SNORA58 / Fold change vs veh, SNORA58 / RFU, C1orf63 / Fold change vs veh, C1orf63 / RFU, LRRFIP1 / Fold change vs veh, LRRFIP1 / RFU, NDUFAF7 / Fold change vs veh, NDUFAF7 / RFU, SLC12A2 / Fold change vs veh, SLC12A2 / RFU, IBTK / Fold change vs veh, IBTK / RFU, ESF1 / Fold change vs veh, ESF1 / Fold change vs veh, TMEM50B / RFU, TAOK1 / Fold change vs veh, TAOK1 / RFU, ACBD3 / Fold change vs veh, ACBD3 / RFU, TMA16 / Fold change vs veh, TMA16 / RFU, RWDD3 / Fold change vs veh, RWDD3 / RFU, BCAT1 / Fold change vs veh, BCAT1 / RFU, EDEM3 / Fold change vs veh, EDEM3 / RFU, TMEM33 / Fold change vs veh, TMEM33 / RFU, WDR75 / Fold change vs veh, WDR75 / RFU, AHCTF1 / Fold change vs veh, AHCTF1 / RFU, TFRC / Fold change vs veh, TFRC / RFU, ZDHHC17 / Fold change vs veh, ZDHHC17 / RFU, NOM1 / Fold change vs veh, NOM1 / RFU, ARL8B / Fold change vs veh, ARL8B / RFU, ZBTB11 / Fold change vs veh, ZBTB11 / RFU, TAMM41 / Fold change vs veh, TAMM41 / RFU, KIAA1704 /// LOC100996395 / Fold change vs veh, KIAA1704 /// LOC100996395 / RFU, ING1 / Fold change vs veh, ING1 / RFU, TRMT61B / Fold change vs veh, TRMT61B / RFU, FUBP3 / Fold change vs veh, FUBP3 / RFU, TP53 / Fold change vs veh, TP53 / RFU, TNKS2 / Fold change vs veh, TNKS2 / RFU, ZFP14 / Fold change vs veh, ZFP14 / RFU, ACTR2 / Fold change vs veh, ACTR2 / RFU, PPP3R1 / Fold change vs veh, PPP3R1 / RFU, PIK3R1 / Fold change vs veh, PIK3R1 / RFU, HNRNPA1 / Fold change vs veh, HNRNPA1 / RFU, RNF170 / Fold change vs veh, RNF170 / RFU, ZNF28 / Fold change vs veh, ZNF28 / RFU, RNGTT / Fold change vs veh, RNGTT / RFU, OGT / Fold change vs veh, OGT / RFU, BRD1 / Fold change vs veh, BRD1 / RFU, MARS / Fold change vs veh, MARS / RFU, ZNF655 / Fold change vs veh, ZNF655 / RFU, FAHD1 / Fold change vs veh, FAHD1 / RFU, BDP1 / Fold change vs veh, BDP1 / RFU, LRRCC1 / Fold change vs veh, LRRCC1 / RFU, ARID1A / Fold change vs veh, ARID1A / RFU, ZNF146 / Fold change vs veh, ZNF146 / RFU, ZNF330 / Fold change vs veh, ZNF330 / RFU, GPN3 / Fold change vs veh, GPN3 / RFU, C9orf123 / Fold change vs veh, C9orf123 / RFU, N4BP2L2 / Fold change vs veh, N4BP2L2 / RFU, ARFIP1 / Fold change vs veh, ARFIP1 / RFU, FAM179B / Fold change vs veh, FAM179B / RFU, BCL10 / Fold change vs veh, BCL10 / RFU, UHRF1BP1L / Fold change vs veh, UHRF1BP1L / RFU, BET1 / Fold change vs veh, BET1 / RFU, CNOT2 / Fold change vs veh, CNOT2 / RFU, ZNF268 / Fold change vs veh, ZNF268 / Fold change vs veh, ZNF507 / RFU, DGCR2 / Fold change vs veh, DGCR2 / RFU, WDSUB1 / Fold change vs veh, WDSUB1 / Fold change vs veh, HSP90B1 /// MIR3652 / RFU, ADSS / Fold change vs veh, ADSS / RFU, GK / Fold change vs veh, GK / RFU, ZNF148 / Fold change vs veh, ZNF148 / RFU, TAF9 / Fold change vs veh, TAF9 / RFU, SLC1A5 / Fold change vs veh, SLC1A5 / RFU, SLMO2 / Fold change vs veh, SLMO2 / RFU, ABCC4 / Fold change vs veh, ABCC4 / RFU, LOC101060439 /// RAP1B / Fold change vs veh, LOC101060439 /// RAP1B / RFU, RFX7 / Fold change vs veh, RFX7 / RFU, GTPBP10 / Fold change vs veh, GTPBP10 / RFU, CNEP1R1 / Fold change vs veh, CNEP1R1 / RFU, BIVM-ERCC5 /// ERCC5 / Fold change vs veh, BIVM-ERCC5 /// ERCC5 / RFU, ILF3 / Fold change vs veh, ILF3 / RFU 11762660_at / Fold change /veh 11762660_at / RFU VCAN (11757783_s_at) / Fold change /veh VCAN (11757783_s_at) / RFU DDX43 (11728927_at) / Fold change /veh DDX43 (11728927_at) / RFU KRT8 (11758188_x_at) / Fold change /veh KRT8 (11758188_x_at) / RFU NKD1 (11759106_at) / Fold change /veh NKD1 (11759106_at) / RFU SRD5A1 (11742802_a_at) / Fold change /veh SRD5A1 (11742802_a_at) / RFU TPSAB1 /// TPSB2 (11721975_s_at) / Fold change /veh TPSAB1 /// TPSB2 (11721975_s_at) / RFU GSTM3 (11746129_a_at) / Fold change /veh GSTM3 (11746129_a_at) / RFU IL23R (11737362_x_at) / Fold change /veh IL23R (11737362_x_at) / RFU TMEM51 (11727254_a_at) / Fold change /veh TMEM51 (11727254_a_at) / RFU PIWIL2 (11732686_x_at) / Fold change /veh PIWIL2 (11732686_x_at) / RFU ORM1 (11744905_x_at) / Fold change /veh ORM1 (11744905_x_at) / RFU CCDC152 (11743942_at) / Fold change /veh CCDC152 (11743942_at) / RFU ECM1 (11717891_a_at) / Fold change /veh ECM1 (11717891_a_at) / RFU IL23R (11748794_a_at) / Fold change /veh IL23R (11748794_a_at) / RFU TNFAIP8L3 (11732012_x_at) / Fold change /veh TNFAIP8L3 (11732012_x_at) / RFU MBOAT4 (11741988_at) / Fold change /veh MBOAT4 (11741988_at) / RFU 11764193_at / Fold change /veh 11764193_at / RFU TMEM53 (11763286_at) / Fold change /veh TMEM53 (11763286_at) / RFU MAGEB2 (11727129_at) / Fold change /veh MAGEB2 (11727129_at) / RFU TMEM200A (11744735_a_at) / Fold change /veh TMEM200A (11744735_a_at) / RFU CCDC152 (11751479_a_at) / Fold change /veh CCDC152 (11751479_a_at) / RFU FAM211A (11726209_a_at) / Fold change /veh FAM211A (11726209_a_at) / RFU RGS16 (11746705_a_at) / Fold change /veh RGS16 (11746705_a_at) / RFU VCAN (11755009_s_at) / Fold change /veh VCAN (11755009_s_at) / RFU RHOB (11743442_s_at) / Fold change /veh RHOB (11743442_s_at) / RFU RGS16 (11720943_a_at) / Fold change /veh RGS16 (11720943_a_at) / RFU RGS16 (11720944_at) / Fold change /veh RGS16 (11720944_at) / RFU, VPS4B / Fold change vs veh, VPS4B / RFU, CREB1 / Fold change vs veh, CREB1 / RFU, DNAJC13 / Fold change vs veh, DNAJC13 / RFU, GNAQ / Fold change vs veh, GNAQ / RFU, CDK5R1 / Fold change vs veh, CDK5R1 / RFU, ZRANB3 / Fold change vs veh, ZRANB3 / RFU, CUL4A / Fold change vs veh, CUL4A / RFU, CCNY / Fold change vs veh, CCNY / RFU, UFL1 / Fold change vs veh, UFL1 / RFU, COG3 / Fold change vs veh, COG3 / RFU, DIAPH2 / Fold change vs veh, DIAPH2 / RFU, SKA2 / Fold change vs veh, SKA2 / RFU, AFF3 / Fold change vs veh, AFF3 / RFU, LMF1 / Fold change vs veh, LMF1 / RFU, IPO11 / Fold change vs veh, IPO11 / RFU, DFFB / Fold change vs veh, DFFB / RFU, FOXP1 / Fold change vs veh, FOXP1 / RFU, CARD8 / Fold change vs veh, CARD8 / RFU, STRN3 / Fold change vs veh, STRN3 / RFU, ADK / Fold change vs veh, ADK / RFU, RASSF2 / Fold change vs veh, RASSF2 / RFU, WIPF1 / Fold change vs veh, WIPF1 / RFU, LARP1B / Fold change vs veh, LARP1B / RFU, RASA1 / Fold change vs veh, RASA1 / RFU, RB1 / Fold change vs veh, RB1 / RFU, PPFIA1 / Fold change vs veh, PPFIA1 / RFU, MAT2A / Fold change vs veh, MAT2A / RFU, CCT5 / Fold change vs veh, CCT5 / RFU, WDR92 / Fold change vs veh, WDR92 / RFU, CUX1 / Fold change vs veh, CUX1 / RFU, TTC7A / Fold change vs veh, TTC7A / RFU, TMEM135 / Fold change vs veh, TMEM135 / RFU, DEPTOR / Fold change vs veh, DEPTOR / RFU, CPM / Fold change vs veh, CPM / RFU, DNAJB6 / Fold change vs veh, DNAJB6 / RFU, CACNA2D3 / Fold change vs veh, CACNA2D3 / RFU, DTX4 / Fold change vs veh, DTX4 / RFU, TFCP2 / Fold change vs veh, TFCP2 / RFU, GMCL1 /// GMCL1P1 / Fold change vs veh, GMCL1 /// GMCL1P1 / RFU, AEBP2 / Fold change vs veh, AEBP2 / RFU, SNHG1 /// SNORD22 /// SNORD25 /// SNORD26 /// SNORD27 /// SNORD28 /// SNORD29 /// SNORD31 / Fold change vs veh, SNHG1 /// SNORD22 /// SNORD25 /// SNORD26 /// SNORD27 /// SNORD28 /// SNORD29 /// SNORD31 / Fold change (Aza/veh), C12orf56 (ProbeSet 11735607_a_at) / Fold change (ACY-1035/veh), C12orf56 (ProbeSet 11735607_a_at) / Fold change (Aza/veh), FGFR1OP (ProbeSet 11751329_s_at) / Fold change (ACY-1035/veh), FGFR1OP (ProbeSet 11751329_s_at) / Fold change (Aza/veh), VPS36 (ProbeSet 11739960_a_at) / Fold change (ACY-1035/veh), VPS36 (ProbeSet 11739960_a_at) / RFU SYPL1 (11715823_x_at) / Fold change /veh SYPL1 (11715823_x_at) / RFU IGFBP7 (11715501_s_at) / Fold change /veh IGFBP7 (11715501_s_at) / RFU REEP3 (11722064_at) / Fold change /veh REEP3 (11722064_at) / RFU IGLL1 (11728026_x_at) / Fold change /veh IGLL1 (11728026_x_at): dose or concentration left out as unconfirmed
Settings: ProbeSet 11717876_a_at; LIST D

Nc1ccc(-c2cccs2)cc1NC(=O)c1ccc2c(c1)cc(C1CC1)n2CCN1CCOCC1 [ACY-1035]
Fold change vs veh, PPFIA1: 0.87
